Data as given in the supplement of paper PMC10307832.

Tests used:
Experiment in all cases: relative viability (nuclei count vs DMSO), 5 days (fraction); higher = more cells survive
NCI-H1355 = system: NCI-H1355
Procedure, shortened: (§1)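 Each reported value is a median over duplicate plates. It expresses relative viability: treated-well nuclei count divided by vehicle-well nuclei count. Lung cancer cell lines in 1536-well plates were dosed by pin tool a day after seeding, alone with one drug or with a fixed anchor-drug dose plus five library-drug doses (not always all listed) in √10 steps, and nuclei were counted after 5 days.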

NCI-H2170 = system: NCI-H2170
Procedure, shortened: as §1

NCI-H2009 = system: NCI-H2009
Procedure, shortened: as §1

NCI-H1734 = system: NCI-H1734
Procedure, shortened: as §1

LOU-NH91 = system: LOU-NH91
Procedure, shortened: as §1

NCI-H2405 = system: NCI-H2405
Procedure, shortened: as §1

NCI-H1395 = system: NCI-H1395
Procedure, shortened: as §1

NCI-H647 = system: NCI-H647
Procedure, shortened: as §1

HCC-827 = system: HCC-827
Procedure, shortened: as §1

BEN = system: BEN
Procedure, shortened: as §1

HCC-366 = system: HCC-366
Procedure, shortened: as §1

EKVX = system: EKVX
Procedure, shortened: as §1

NCI-H2342 = system: NCI-H2342
Procedure, shortened: as §1

HARA = system: HARA
Procedure, shortened: as §1

SK-MES-1 = system: SK-MES-1
Procedure, shortened: as §1

NCI-H661 = system: NCI-H661
Procedure, shortened: as §1

NCI-H1437 = system: NCI-H1437
Procedure, shortened: as §1

SK-LU-1 = system: SK-LU-1
Procedure, shortened: as §1

NCI-H522 = system: NCI-H522
Procedure, shortened: as §1

NCI-H2087 = system: NCI-H2087
Procedure, shortened: as §1

NCI-H1993 = system: NCI-H1993
Procedure, shortened: as §1

## COc1cc2nccc(Oc3ccc(NC(=O)Nc4cc(C)on4)c(Cl)c3)c2cc1OC [Tivozanib] + Cc1cc(Nc2cc(N3CCN(C)CC3)nc(Sc3ccc(NC(=O)C4CC4)cc3)n2)n[nH]1 [Tozasertib] (partner 0.1 µM)
NCI-H1355; first compound 0.005 µM
  relative viability: 0.515
NCI-H1355; first compound 0.01581 µM
  relative viability: 0.576
NCI-H1355; first compound 0.05 µM
  relative viability: 0.57
NCI-H1355; first compound 0.1581 µM
  relative viability: 0.614
NCI-H1355; first compound 0.5 µM
  relative viability: 0.53
NCI-H2170; first compound 0.005 µM
  relative viability: 0.673
NCI-H2170; first compound 0.01581 µM
  relative viability: 0.685
NCI-H2170; first compound 0.05 µM
  relative viability: 0.801
NCI-H2170; first compound 0.1581 µM
  relative viability: 0.671
NCI-H2170; first compound 0.5 µM
  relative viability: 0.784
NCI-H2009; first compound 0.005 µM
  relative viability: 0.708
NCI-H2009; first compound 0.01581 µM
  relative viability: 0.738
NCI-H2009; first compound 0.05 µM
  relative viability: 0.733
NCI-H2009; first compound 0.1581 µM
  relative viability: 0.725
NCI-H2009; first compound 0.5 µM
  relative viability: 0.759
NCI-H1734; first compound 0.005 µM
  relative viability: 0.24
NCI-H1734; first compound 0.01581 µM
  relative viability: 0.258
NCI-H1734; first compound 0.05 µM
  relative viability: 0.26
NCI-H1734; first compound 0.1581 µM
  relative viability: 0.275
NCI-H1734; first compound 0.5 µM
  relative viability: 0.252
LOU-NH91; first compound 0.005 µM
  relative viability: 0.644
LOU-NH91; first compound 0.01581 µM
  relative viability: 0.669
LOU-NH91; first compound 0.05 µM
  relative viability: 0.775
LOU-NH91; first compound 0.1581 µM
  relative viability: 0.759
LOU-NH91; first compound 0.5 µM
  relative viability: 0.659
NCI-H2405; first compound 0.005 µM
  relative viability: 0.676
NCI-H2405; first compound 0.01581 µM
  relative viability: 0.753
NCI-H2405; first compound 0.05 µM
  relative viability: 0.841
NCI-H2405; first compound 0.1581 µM
  relative viability: 0.879
NCI-H2405; first compound 0.5 µM
  relative viability: 0.711
NCI-H1395; first compound 0.005 µM
  relative viability: 0.734
NCI-H1395; first compound 0.01581 µM
  relative viability: 0.738
NCI-H1395; first compound 0.05 µM
  relative viability: 0.81
NCI-H1395; first compound 0.1581 µM
  relative viability: 0.681
NCI-H1395; first compound 0.5 µM
  relative viability: 0.807
NCI-H647; first compound 0.005 µM
  relative viability: 0.269
NCI-H647; first compound 0.01581 µM
  relative viability: 0.203
NCI-H647; first compound 0.05 µM
  relative viability: 0.263
NCI-H647; first compound 0.1581 µM
  relative viability: 0.332
NCI-H647; first compound 0.5 µM
  relative viability: 0.302
HCC-827; first compound 0.005 µM
  relative viability: 0.429
HCC-827; first compound 0.01581 µM
  relative viability: 0.421
HCC-827; first compound 0.05 µM
  relative viability: 0.417
HCC-827; first compound 0.1581 µM
  relative viability: 0.408
HCC-827; first compound 0.5 µM
  relative viability: 0.455
BEN; first compound 0.005 µM
  relative viability: 0.515
BEN; first compound 0.01581 µM
  relative viability: 0.425
BEN; first compound 0.05 µM
  relative viability: 0.572
BEN; first compound 0.5 µM
  relative viability: 0.542
HCC-366; first compound 0.005 µM
  relative viability: 0.094
HCC-366; first compound 0.01581 µM
  relative viability: 0.115
HCC-366; first compound 0.05 µM
  relative viability: 0.156
HCC-366; first compound 0.1581 µM
  relative viability: 0.137
HCC-366; first compound 0.5 µM
  relative viability: 0.111
EKVX; first compound 0.005 µM
  relative viability: 0.443
EKVX; first compound 0.01581 µM
  relative viability: 0.356
EKVX; first compound 0.05 µM
  relative viability: 0.35
EKVX; first compound 0.1581 µM
  relative viability: 0.47
EKVX; first compound 0.5 µM
  relative viability: 0.474
NCI-H2342; first compound 0.005 µM
  relative viability: 0.469
NCI-H2342; first compound 0.01581 µM
  relative viability: 0.543
NCI-H2342; first compound 0.05 µM
  relative viability: 0.603
NCI-H2342; first compound 0.5 µM
  relative viability: 0.43
HARA; first compound 0.005 µM
  relative viability: 0.113
HARA; first compound 0.01581 µM
  relative viability: 0.107
HARA; first compound 0.05 µM
  relative viability: 0.112
HARA; first compound 0.1581 µM
  relative viability: 0.133
HARA; first compound 0.5 µM
  relative viability: 0.145
SK-MES-1; first compound 0.005 µM
  relative viability: 0.801
SK-MES-1; first compound 0.01581 µM
  relative viability: 0.888
SK-MES-1; first compound 0.05 µM
  relative viability: 0.98
SK-MES-1; first compound 0.1581 µM
  relative viability: 0.901
SK-MES-1; first compound 0.5 µM
  relative viability: 0.789
NCI-H661; first compound 0.005 µM
  relative viability: 0.37
NCI-H661; first compound 0.01581 µM
  relative viability: 0.362
NCI-H661; first compound 0.05 µM
  relative viability: 0.359
NCI-H661; first compound 0.1581 µM
  relative viability: 0.363
NCI-H661; first compound 0.5 µM
  relative viability: 0.363
NCI-H1437; first compound 0.005 µM
  relative viability: 0.405
NCI-H1437; first compound 0.01581 µM
  relative viability: 0.343
NCI-H1437; first compound 0.05 µM
  relative viability: 0.53
NCI-H1437; first compound 0.1581 µM
  relative viability: 0.44
NCI-H1437; first compound 0.5 µM
  relative viability: 0.436
SK-LU-1; first compound 0.005 µM
  relative viability: 0.332
SK-LU-1; first compound 0.01581 µM
  relative viability: 0.366
SK-LU-1; first compound 0.05 µM
  relative viability: 0.472
SK-LU-1; first compound 0.1581 µM
  relative viability: 0.357
SK-LU-1; first compound 0.5 µM
  relative viability: 0.335
NCI-H522; first compound 0.005 µM
  relative viability: 0.581
NCI-H522; first compound 0.01581 µM
  relative viability: 0.553
NCI-H522; first compound 0.05 µM
  relative viability: 0.581
NCI-H522; first compound 0.1581 µM
  relative viability: 0.536
NCI-H522; first compound 0.5 µM
  relative viability: 0.577
NCI-H2087; first compound 0.005 µM
  relative viability: 0.22
NCI-H2087; first compound 0.01581 µM
  relative viability: 0.316
NCI-H2087; first compound 0.05 µM
  relative viability: 0.261
NCI-H2087; first compound 0.1581 µM
  relative viability: 0.338
NCI-H2087; first compound 0.5 µM
  relative viability: 0.303
NCI-H1993; first compound 0.005 µM
  relative viability: 0.559
NCI-H1993; first compound 0.01581 µM
  relative viability: 0.585
NCI-H1993; first compound 0.05 µM
  relative viability: 0.568
NCI-H1993; first compound 0.1581 µM
  relative viability: 0.485
NCI-H1993; first compound 0.5 µM
  relative viability: 0.513
